# “And” between values parts separate entries of the source, which are not always exact repeats. Equal entries are not always repeated.
# Test system: SW 1271 complex spheroids, viability
# Assay: Anticancer human tumor SW 1271 cell line growth inhibition [LSD1];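 also: spheroids exposed to agents for 7 days before luminescence read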;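 as to viability, T/C: 100% = DMSO vehicle control viability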
# Conditions: for viability, T/C: stronger effect = lower value
# In short: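 Drug combinations with the LSD1 inhibitor iadademstat tested on tumor cells co-cultured as spheroids with endothelial cells and mesenchymal stem cells. Concentrations descended in half-log increments from clinical Cmax or 10 microM.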
# [1] = curve of first compound, second compound 0.1 µM
# [2] = curve of first compound, second compound 0.316 µM
# [3] = curve of first compound, second compound 1 µM
# [4] = curve of first compound, second compound 3.16 µM
# [5] = curve of first compound, second compound 10 µM
# [6] = second compound 0.1 µM, first compound 0.00949 µM
# [7] = second compound 0.1 µM, first compound 0.03 µM
# [8] = second compound 0.1 µM, first compound 0.0949 µM
# [9] = second compound 0.1 µM, first compound 0.3 µM
# [10] = second compound 0.1 µM, first compound 0.949 µM
# [11] = second compound 0.1 µM, first compound 3 µM
# [12] = second compound 0.316 µM, first compound 0.00949 µM
# [13] = second compound 0.316 µM, first compound 0.03 µM
# [14] = second compound 0.316 µM, first compound 0.0949 µM
# [15] = second compound 0.316 µM, first compound 0.3 µM
# [16] = second compound 0.316 µM, first compound 0.949 µM
# [17] = second compound 0.316 µM, first compound 3 µM
# [18] = second compound 1 µM, first compound 0.00949 µM
# [19] = second compound 1 µM, first compound 0.03 µM
# [20] = second compound 1 µM, first compound 0.0949 µM
# [21] = second compound 1 µM, first compound 0.3 µM
# [22] = second compound 1 µM, first compound 0.949 µM
# [23] = second compound 1 µM, first compound 3 µM
# [24] = second compound 3.16 µM, first compound 0.00949 µM
# [25] = second compound 3.16 µM, first compound 0.03 µM
# [26] = second compound 3.16 µM, first compound 0.0949 µM
# [27] = second compound 3.16 µM, first compound 0.3 µM
# [28] = second compound 3.16 µM, first compound 0.949 µM
# [29] = second compound 3.16 µM, first compound 3 µM
# [30] = second compound 10 µM, first compound 0.00949 µM
# [31] = second compound 10 µM, first compound 0.03 µM
# [32] = second compound 10 µM, first compound 0.0949 µM
# [33] = second compound 10 µM, first compound 0.3 µM
# [34] = second compound 10 µM, first compound 0.949 µM
# [35] = second compound 10 µM, first compound 3 µM
smiles,measurement,setting,value
Nc1ncn(C2CC(O)C(CO)O2)c(=O)n1 (stereo unspecified) + NC1CCC(NC2CC2c2ccccc2)CC1,IC50,[1],> 1000 nM
same,IC50,[2],> 1000 nM
same,IC50,[3],> 1000 nM
same,IC50,[4],> 1000 nM
same,IC50,[5],> 1000 nM
same,"viability, T/C","second compound 0.1 µM, first compound 0.00316 µM",83.6%
same,"viability, T/C","second compound 0.1 µM, first compound 0.01 µM",95.2%
same,"viability, T/C","second compound 0.1 µM, first compound 0.0316 µM",90%
same,"viability, T/C","second compound 0.1 µM, first compound 0.1 µM",74.5%
same,"viability, T/C","second compound 0.1 µM, first compound 0.316 µM",86.5%
same,"viability, T/C","second compound 0.1 µM, first compound 1 µM",81.3%
same,"viability, T/C","second compound 0.316 µM, first compound 0.00316 µM",91.3%
same,"viability, T/C","second compound 0.316 µM, first compound 0.01 µM",82.6%
same,"viability, T/C","second compound 0.316 µM, first compound 0.0316 µM",92.8%
same,"viability, T/C","second compound 0.316 µM, first compound 0.1 µM",81.3%
same,"viability, T/C","second compound 0.316 µM, first compound 0.316 µM",66.6%
same,"viability, T/C","second compound 0.316 µM, first compound 1 µM",76.7%
same,"viability, T/C","second compound 1 µM, first compound 0.00316 µM",85.8%
same,"viability, T/C","second compound 1 µM, first compound 0.01 µM",81.2%
same,"viability, T/C","second compound 1 µM, first compound 0.0316 µM",75.9%
same,"viability, T/C","second compound 1 µM, first compound 0.1 µM",76.7%
same,"viability, T/C","second compound 1 µM, first compound 0.316 µM",66.2%
same,"viability, T/C","second compound 1 µM, first compound 1 µM",72.4%
same,"viability, T/C","second compound 3.16 µM, first compound 0.00316 µM",82.3%
same,"viability, T/C","second compound 3.16 µM, first compound 0.01 µM",93.9%
same,"viability, T/C","second compound 3.16 µM, first compound 0.0316 µM",74.1%
same,"viability, T/C","second compound 3.16 µM, first compound 0.1 µM",80.6%
same,"viability, T/C","second compound 3.16 µM, first compound 0.316 µM",66.5%
same,"viability, T/C","second compound 3.16 µM, first compound 1 µM",77.2%
same,"viability, T/C","second compound 10 µM, first compound 0.00316 µM",95.7%
same,"viability, T/C","second compound 10 µM, first compound 0.01 µM",89.9%
same,"viability, T/C","second compound 10 µM, first compound 0.0316 µM",84.8%
same,"viability, T/C","second compound 10 µM, first compound 0.1 µM",81.8%
same,"viability, T/C","second compound 10 µM, first compound 0.316 µM",81.3%
same,"viability, T/C","second compound 10 µM, first compound 1 µM",91.1%
Cn1ncnc1C1c2n[nH]c(=O)c3cc(F)cc(c23)NC1c1ccc(F)cc1 (stereo unspecified),"viability, T/C",compound 0.000316 µM,89.1% and 97.2%
same,"viability, T/C",compound 0.001 µM,94.9% and 81.7%
same,"viability, T/C",compound 0.00316 µM,87.8% and 87%
same,"viability, T/C",compound 0.01 µM,91.1% and 85%
same,"viability, T/C",compound 0.0316 µM,84.2% and 92.2%
same,"viability, T/C",compound 0.1 µM,91.7% and 99.5%
same,IC50,curve of compound,> 100 nM
O=C(c1cc(Cc2n[nH]c(=O)c3ccccc23)ccc1F)N1CCN(C(=O)C2CC2)CC1,"viability, T/C",compound 0.0316 µM,84.9% and 80.2%
same,"viability, T/C",compound 0.1 µM,85.2% and 85.3%
same,"viability, T/C",compound 0.316 µM,81.4% and 76.1%
same,"viability, T/C",compound 1 µM,81.5% and 85.4%
same,"viability, T/C",compound 3.16 µM,90.2% and 77%
same,"viability, T/C",compound 10 µM,87.5% and 68.8%
same,IC50,curve of compound,> 10000 nM
COc1cc(C2c3cc4c(cc3C(OC3OC5COC(C)OC5C(O)C3O)C3COC(=O)C23)OCO4)cc(OC)c1O (stereo unspecified) + NC1CCC(NC2CC2c2ccccc2)CC1,IC50,[1],2660 nM
same,IC50,[2],> 3000 nM
same,IC50,[3],> 3000 nM
same,IC50,[4],> 3000 nM
same,IC50,[5],> 3000 nM
same,"viability, T/C",[6],77%
same,"viability, T/C",[7],76.8%
same,"viability, T/C",[8],80.5%
same,"viability, T/C",[9],68.9%
same,"viability, T/C",[10],78.7%
same,"viability, T/C",[11],47%
same,"viability, T/C",[12],88.7%
same,"viability, T/C",[13],94.4%
same,"viability, T/C",[14],75%
same,"viability, T/C",[15],66.7%
same,"viability, T/C",[16],58.4%
same,"viability, T/C",[17],64.1%
same,"viability, T/C",[18],80.2%
same,"viability, T/C",[19],80.2%
same,"viability, T/C",[20],74.2%
same,"viability, T/C",[21],75%
same,"viability, T/C",[22],66.7%
same,"viability, T/C",[23],56.9%
same,"viability, T/C",[24],95.7%
same,"viability, T/C",[25],70.9%
same,"viability, T/C",[26],71.8%
same,"viability, T/C",[27],73.4%
same,"viability, T/C",[28],58.9%
same,"viability, T/C",[29],60.8%
same,"viability, T/C",[30],77%
same,"viability, T/C",[31],80.9%
same,"viability, T/C",[32],72.1%
same,"viability, T/C",[33],72.2%
same,"viability, T/C",[34],58.4%
same,"viability, T/C",[35],64.3%
COc1cc(C2c3cc4c(cc3C(OC3OC5COC(C)OC5C(O)C3O)C3COC(=O)C23)OCO4)cc(OC)c1O (stereo unspecified) + NC1CC1c1ccc(-c2cccc(O)c2)cc1,IC50,[1],1390 nM
same,IC50,[2],> 3000 nM
same,IC50,[3],582 nM
same,IC50,[4],> 3000 nM
same,IC50,[5],289 nM
same,"viability, T/C",[6],84.4%
same,"viability, T/C",[7],68.3%
same,"viability, T/C",[8],63.8%
same,"viability, T/C",[9],53.7%
same,"viability, T/C",[10],56.7%
same,"viability, T/C",[11],44.4%
same,"viability, T/C",[12],70.7%
same,"viability, T/C",[13],58.9%
same,"viability, T/C",[14],67.7%
same,"viability, T/C",[15],52.8%
same,"viability, T/C",[16],49.9%
same,"viability, T/C",[17],54%
same,"viability, T/C",[18],79.2%
same,"viability, T/C",[19],67.9%
same,"viability, T/C",[20],62.9%
same,"viability, T/C",[21],57.1%
same,"viability, T/C",[22],45.8%
same,"viability, T/C",[23],38%
same,"viability, T/C",[24],64.9%
same,"viability, T/C",[25],55.2%
same,"viability, T/C",[26],61.3%
same,"viability, T/C",[27],48.2%
same,"viability, T/C",[28],48.5%
same,"viability, T/C",[29],59.9%
same,"viability, T/C",[30],61%
same,"viability, T/C",[31],60.9%
same,"viability, T/C",[32],53.1%
same,"viability, T/C",[33],51.5%
same,"viability, T/C",[34],41.6%
same,"viability, T/C",[35],46.5%
NS(=O)(=O)OCC1CC(n2ccc3c(NC4CCc5ccccc54)ncnc32)CC1O (stereo unspecified),"viability, T/C",compound 0.00949 µM,159% and 149%
same,"viability, T/C",compound 0.03 µM,127% and 122%
same,"viability, T/C",compound 0.0949 µM,83.5% and 85.6%
same,"viability, T/C",compound 0.3 µM,89.7% and 67.7%
same,"viability, T/C",compound 0.949 µM,73.1% and 74.3%
same,"viability, T/C",compound 3 µM,82.1% and 73.2%
same,IC50,curve of compound,> 3000 nM
CCc1c2c(nc3ccc(O)cc13)-c1cc3c(c(=O)n1C2)COC(=O)[C@]3(O)CC + NC1CC1c1ccc(-c2cccc(O)c2)cc1,IC50,[1],< 0.949 nM
same,IC50,[2],1.07 nM
same,IC50,[3],< 0.949 nM
same,IC50,[4],< 0.949 nM
same,IC50,[5],2.83 nM
same,"viability, T/C","second compound 0.1 µM, first compound 0.000949 µM",48.1%
same,"viability, T/C","second compound 0.1 µM, first compound 0.003 µM",46%
same,"viability, T/C",[6],26.5%
same,"viability, T/C",[7],8.18%
same,"viability, T/C",[8],8.27%
same,"viability, T/C",[9],3.92%
same,"viability, T/C","second compound 0.316 µM, first compound 0.000949 µM",50.5%
same,"viability, T/C","second compound 0.316 µM, first compound 0.003 µM",45.4%
same,"viability, T/C",[12],25.9%
same,"viability, T/C",[13],10.3%
same,"viability, T/C",[14],8.68%
same,"viability, T/C",[15],6.46%
same,"viability, T/C","second compound 1 µM, first compound 0.000949 µM",49.4%
same,"viability, T/C","second compound 1 µM, first compound 0.003 µM",43%
same,"viability, T/C",[18],27.4%
same,"viability, T/C",[19],9.38%
same,"viability, T/C",[20],5.98%
same,"viability, T/C",[21],3.79%
same,"viability, T/C","second compound 3.16 µM, first compound 0.000949 µM",48.2%
same,"viability, T/C","second compound 3.16 µM, first compound 0.003 µM",50.2%
same,"viability, T/C",[24],26.7%
same,"viability, T/C",[25],9.15%
same,"viability, T/C",[26],5.19%
same,"viability, T/C",[27],5.82%
same,"viability, T/C","second compound 10 µM, first compound 0.000949 µM",56.6%
same,"viability, T/C","second compound 10 µM, first compound 0.003 µM",48.5%
same,"viability, T/C",[30],30.1%
same,"viability, T/C",[31],9.23%
same,"viability, T/C",[32],7.28%
same,"viability, T/C",[33],5.03%

# Reference: PubChem BioAssay AID1918941 (Molecular Pharmacology Branch, DTP, NCI, 2023)
